In patent US6656971B2, “Trisubstituted carbocyclic cyclophilin binding compounds and their use” (Guilford Pharmaceuticals Inc., priority 2001, dated 2003):

Experiments:
human recombinant CyPA [1] = target: T1, human recombinant CyPA (Homo sapiens, UniProt P62937); experiment: Rotamase (PPIase) inhibition, chymotrypsin-coupled cuvette assay, human recombinant CyPA; format: biochemical; settings: Table A, value without asterisk: human recombinant CyPA
Source text: A number of substrates for rotamase are known in the art or can be derived from those known. Typically, the substrate contacts a sample containing a protein with rotamase activity and the conversion of the substrate is detected after a period of time. The method for detecting conversion of the substrate will vary with the particular substrate chosen. One method has been termed the Ki test (See Harding, et al., Nature, 341:758-760 (1989); and Holt et al., J. Am. Chem. Soc., 115:9923-9938). The cis-trans isomerization of an alanine-proline bond in a model substrate, N-succinyl-Ala-Ala-Pro-Phe-p-nitroanilide (SEQ ID NO: 1), is monitored spectrophotometrically in a chymotrypsin-coupled assay. The action of chymotrypsin releases p-nitroaniline from only the trans form of the substrate. The amount of p-nitroaniline can be monitored in a spectrophotometer, for example. Other methods of detecting the presence of p-nitroaniline can also be used. The inhibition of this reaction caused by different concentrations of inhibitor is determined and the data are analyzed as a change in first-order rate constant as a function of inhibitor concentration, which yields the Ki value.
The following were added to a plastic cuvette: 950 μl of ice cold assay buffer (25 mM HEPES, pH 7.8, 100 mM NaCl), 10 μL of CyP A (2.5 μM in 10 mM Tris-Cl pH 7.5, 100 mM NaCl, 1 mM dithiothreitol), 25 μL of chymotrypsin (50 mg/ml in 1 mM HCl), and 10 μL of test compound, at various concentrations, in dimethyl sulfoxide. The reaction was initiated by the addition of 5 μL of substrate (succinyl-Ala-Phe-Pro-Phe-para-nitroanilide (SEQ ID NO: 1), 5 mg/mL in 470 mM LiCl in trifluoroethanol). The absorbance at 390 nm versus time was monitored for 90 seconds using a spectrophotometer and the rate constants were determined from the absorbance versus time data files.
The IC50 values which were obtained for representative compounds are given in the following Table A, and refer to the concentration that inhibits 50% of the rotamase activity in a sample.
(§1) The Cyclophilin utilized was a human recombinant CyPA, [Yoo et al., J. Mol. Biol., 269 (1997) 780-95].

human recombinant CyPA [2] = target: T1, human recombinant CyPA; experiment: Semiautomated microtiter plate assay of rotamase activity inhibition, human recombinant CyPA; format: biochemical; settings: Table B, value without asterisk: human recombinant CyPA
Procedure: (§2) Rotamase inhibition was determined using a semiautomated microtiter plate assay modification of the above described assay [see Küllertz et al., Clin. Chem. 44, 502-508 (1998)]. All dilutions of CyPA, peptide substrate, and chymotrypsin were made in 35 mM ice-cold HEPES buffer. Fifty μL of CyPA solution is added to 50 μL of the peptide substrate solution (Phe-Pro-Phe p-nitroanilide, 0.16 mg/ml) in a glass microtiter well plate (the concentration of human recombinant CyP being adjusted so that the reaction rate is increased by a factor of 3 as compared to an uncatalyzed control reaction wherein the peptide substrate is degraded by chymotrypsin alone, in the absence of CyPA and test compound). Using a Beckman Multimek™ 96 automated 96-channel pipettor, 5 μL of test compound solution, or a DMSO blank, were added to each well for a 30 minute preincubation at 4° C. One hundred μL of chymotrypsin solution (1 mg/mL) were added to each well and the absorbance at 390 nm versus time was monitored for 9-10 minutes using a BioRad Ultramark plate reader maintained at 4° C. and the rate constants were determined from the absorbance versus time data files.
(§3) IC50 values which were obtained for representative compounds are presented in the following Table B. The cyclophilin utilized was a human recombinant CyPA. […] While CyP A was used in these examples, other CyP proteins can be substituted.

[3] = target: T2, recombinant rat CyPA-GST fusion protein (Rattus norvegicus, UniProt P10111); experiment: Rotamase (PPIase) inhibition, chymotrypsin-coupled cuvette assay, rat CyPA-GST fusion protein; format: biochemical; settings: Table A, value with asterisk: recombinant rat CyPA-GST fusion protein
T2 construct: made in house; host or cells: E. coli BL21

[4] = target: T2, recombinant rat CyPA-GST fusion protein; experiment: Semiautomated microtiter plate assay of rotamase activity inhibition, rat CyPA-GST fusion protein; format: biochemical; settings: Table B, value with asterisk: recombinant rat CyPA-GST fusion protein
Procedure: as §1
The resulting fragment (573 base pairs) was cloned into pCRII and amplified. The CyP sequence was cut out with Sma1 and EcoR1 and cloned into the Sma1/EcoR1 sites in pGEX2TK (Pharmacia). This plasmid was transformed into BL21 E. coli cells for expression of the GST-CyPA fusion protein.
as §2, §3

[5] = tested on: nigrostriatal dopaminergic fibers; experiment: MPTP-lesioned mouse model of Parkinson's disease, striatal TH fiber density; format: in vivo, CD1 albino mice; settings: for % protection of striatal tyrosine hydroxylase-immunoreactive fibres: 10 mg/kg s.c. once daily days 1-5, one hour prior to MPTP, perfused day seven
[6] = tested on: SMI-32 immunoreactive neurons of lumbar spinal cord slices; experiment: Neuroprotection assay in spinal cord slice preparations (THA-induced cell death); format: cell-based, Sprague-Dawley rat; settings: THA 200 μM + compound 10 μM
Procedure: All cultures were derived from postnatal day 8 (P8) Sprague-Dawley rat lumbar spinal cord slices of 325 micrometer thickness, prepared using a commercially available McIlwain tissue chopper. Each experiment consisted of two 6-well plates with 5 slices from 4 different animals per well. Media changes were performed every 3 to 4 days. Cultures were treated with THA [L(−)-threo-3-hydroxyaspartic acid; Tocris Cookson Inc., Ballwin, Mo.] at 200 μM+compound (10 μM) after one week in culture. The control was an untreated sample with 0.1% DMSO as vehicle. The THA control was a THA treated sample with 0.1% DSMO as vehicle. Two wells were used per condition. One media change with new THA and compounds was performed. […]
Slices were permeabilized with 100% cold methanol for 10 minutes, subsequently washed 3×in 0.1M phosphate buffer and transferred to staining wells. […] Quantification of surviving neurons was performed on a Zeiss Axiovert microscope. Neuronal survival was determined by observing an intact neuronal cell body with processes located ventrally of the central canal in each hemisphere. […] Each hemisphere was counted individually. The statistics were performed with StatView™ software on a minimum of three different experiments per condition and significance was determined as compared to THA control. […]

T1 sequence (P62937 whole entry): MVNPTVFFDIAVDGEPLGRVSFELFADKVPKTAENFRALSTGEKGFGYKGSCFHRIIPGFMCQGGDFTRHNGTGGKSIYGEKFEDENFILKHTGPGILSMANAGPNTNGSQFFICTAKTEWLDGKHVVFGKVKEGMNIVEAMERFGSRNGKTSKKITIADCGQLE
T2 sequence (P10111 2-164): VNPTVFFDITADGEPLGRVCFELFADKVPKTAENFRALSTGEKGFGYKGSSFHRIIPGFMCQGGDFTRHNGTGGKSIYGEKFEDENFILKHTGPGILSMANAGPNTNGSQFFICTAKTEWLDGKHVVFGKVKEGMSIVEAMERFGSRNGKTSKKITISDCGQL

IC50 (human recombinant CyPA [1]) [nM]	IC50 (human recombinant CyPA [2]) [nM]	IC50 [3] [nM]	IC50 [4] [nM]	Compound	further results
490	1730	–	–	N#Cc1ccccc1-c1ccc(COc2cc(C(=O)NCCc3ccc(Cl)c(Cl)c3)cc(C(=O)NCCc3ccc(Cl)c(Cl)c3)c2)cc1 [Compound 21, 1-[4-(2-cyanophenyl)benzy]loxy-3,5-bis{2-[(3,4-dichlorophenyl)ethyl]aminocarbonyl}benzene]	–
297	2030	–	–	O=C(Nc1cccc(C(F)(F)F)c1)c1cc(/C=C/c2ccc3ccccc3c2)cc(C(=O)Nc2cccc(C(F)(F)F)c2)c1 [Compound 25, (5-(2-(2-naphthyl)vinyl)-3-{N-[3-(trifluoromethyl)phenyl]carbamoyl}phenyl)-N-[3-(trifluoromethyl)phenyl]formamide]	–
1580	–	3530	6940	Nc1cc(CN2C(=O)c3ccccc3C2=O)cc(NC(=S)Nc2cc(Cl)cc(Cl)c2)c1 [Compound 31, 2-{[3-amino-5-({[(3,5-dichlorophenyl)amino]thioxomethyl}amino)phenyl]methyl}isoindoline-1,3-dione]	–
164	51.5	102	91.7	O=C(Nc1cc(Cl)c(Cl)c(Cl)c1)c1cc(OCc2ccc(Cl)c(Cl)c2)cc(C(=O)Nc2cc(Cl)c(Cl)c(Cl)c2)c1 [Compound 32, 1-(3,4-dichlorobenzyloxy)-3,5-bis-[(3,4,5-trichlorophenyl)aminocarbonyl]benzene]	–
11700	–	12000	9720	O=C(Nc1cc(OCc2cccc3ccccc23)ccc1Br)c1cccc(C(F)(F)F)c1 [Compound 34, N-[2-bromo-5-(naphthylmethoxy)phenyl][3-(trifluoromethyl)phenyl]formamide]	melting point: 125 to 127 °C
–	–	1310	353	CN(C)c1ccc(Nc2ccc(NC(=S)Nc3cc(Cl)cc(Cl)c3)cc2NC(=S)Nc2cc(Cl)cc(Cl)c2)cc1 [Compound 35, [(3,5-dichlorophenyl)amino]{[5-({[(3,5-dichlorophenyl)amino]thioxomethyl}amino)-2-{[4-(dimethylamino)phenyl]amino}phenyl]amino}methane-1-thione]	–
–	–	230	–	O=C(Nc1cccc(C(F)(F)F)c1)c1cc(OCc2ccc3ccccc3c2)cc(C(=O)Nc2cccc(C(F)(F)F)c2)c1 [Compound 42, 1,3-Bis[(3-trifluoromethylphenyl)aminocarbonyl]-5-[(2-naphthyl)methyloxy]benzene]	% protection of striatal tyrosine hydroxylase-immunoreactive fibres [5]: 44.1%; striatal TH fiber density ([5]; regeneration protocol: MPTP days 1-5, compound once daily on days 8-12, perfused day 18): 88%
–	–	377	287	O=C(Nc1ccc(Cl)c(Cl)c1)c1cc(OCc2ccccc2)cc(C(=O)Nc2ccc(Cl)c(Cl)c2)c1 [Compound 43]	protection from THA-induced cell death [6]: complete protection; SMI-32 immunoreactive neurons per ventral hemisphere ([6]; untreated control 26.4±4.2, THA control 18.97±2.04 (mean±standard error)): 28.14±2.4 cells/ventral hemisphere
–	–	374	–	S=C(Nc1cc(Cl)cc(Cl)c1)Nc1ccc(N2CCCCC2)c(NC(=S)Nc2cc(Cl)cc(Cl)c2)c1 [Compound 44]	% protection of striatal tyrosine hydroxylase-immunoreactive fibres [5]: 25.1%

Compound	IC50 (human recombinant CyPA [1]) [nM]	IC50 (human recombinant CyPA [2]) [nM]	IC50 [3] [nM]	IC50 [4] [nM]	further results
(3-bromo-5-{N-[3-(trifluoromethyl)phenyl]carbamoyl}phenyl)-N-[3-(trifluoromethyl) phenyl]formamide [Compound 26]	909	2540	–	–	–
